This note sets out measurements from patent EP4755885A1 (Shanghai Hansoh Biomedical Co., Ltd., priority 2023, dated 2025).

In series [1] the target is T1, human GLP-1 receptor (Homo sapiens, UniProt P43220).
T1 construct: expressed in transfected cells
The experiment in a line: cAMP production in cell line stably transformed with human GLP1 receptor, 30 min co-incubation (HTRF). It is filed as cell-based. Conditions: CHO-K1/GLP-1R/CRE-luc cells, stimulation for 0.5 h, read-out: EC50. The method, then:
(§1) The purpose of this assay example is to test the ability of the compound to activate the human GLP-1 receptor on cell surface. The EC50 for stimulated cAMP production after activation characterizes the ability of the compound to activate the human GLP-1 receptor.
In this experiment, the compound and cells were co-incubated for 30 min.
(§2) Frozen cell line CHO-K1/GLP-1R/CRE-luc stably transformed with human GLP1 receptor was removed from a liquid nitrogen tank, and was placed in a 37°C water bath for rapid thawing. The cells were resuspended in DMEM/F12 medium, and after centrifugation, were washed once. The cells were resuspended in an experimental buffer, i.e., DMEM/F12 medium containing 0.1% casein. After centrifugation, cell density was adjusted using the experimental buffer. The cells were plated onto a 384-well plate at a density of 1500 cells/5 µL/well. Then, each well was added with 2.5 µL of IBMX working solution prepared with the buffer, the final concentration of IBMX being 0.5 mM, and 2.5 µL of a serially diluted compound sample (starting from […], 3-fold dilution, 12 concentrations). The plate was centrifuged at 1000 rpm for 1 min, and was stood for incubation at 37°C for 0.5 h. Determination was performed using the Cisbio cAMP - Gs Dynamic kit. cAMP-d2 and anti-cAMP-Eu3+-Cryptate were diluted 18-fold and 20-fold respectively with cAMP Lysis & Detection Buffer, and were respectively mixed homogeneously. Each well was added with 5 µL of diluted cAMP-d2 solution, and the plate was centrifuged at 1000 rpm for 1 min, and shaken for 30 seconds for homogeneous mixing. Then, each well was added with 5 µL of diluted anti-cAMP-Eu3+-Cryptate solution, and the plate was centrifuged at 1000 rpm for 1 min and was incubated in the dark at room temperature for 1 h. HTRF signals were read using the Biotek Synergy H1 microplate reader, the excitation wavelength being 320 nm and the emission wavelengths being 620 nm and 665 nm.
(§3) The signal-to-signal ratio was calculated (665 nm/620 nm * 10,000). Nonlinear fitting between the signal-to-signal ratio and the sample concentration was performed in GraphPad Prism 10 using a four-parameter equation to obtain the EC50 value.

Series [2] can be described thus: Pharmacokinetic evaluation in rats, oral administration. Conditions: rat, in vivo, p.o. 5 mg/kg, plasma; for MRT inf: read-out: MRT 0-∞. Set-up: species or system SD rats. On the procedure: SD rats were used as test animals to study the pharmacokinetic behavior of the following example compounds, administered orally at a dose of 5 mg/kg, in the plasma of the rats. SD rats, 3 per group, male. […] An example compound was weighed and added to a 4 mL glass bottle, and the solution was added. […] Sonication was performed for 10 min to obtain a colorless clear solution having a concentration of 0.5 mg/mL. […] The blood samples were placed in EDTA-K2 tubes and centrifuged at 6000 rpm at 4°C for 6 min to separate plasma, which was stored at -80°C. […] • Liquid phase conditions: Shimadzu LC-20AD pump • Mass spectrometry conditions: AB Sciex API 4000 mass spectrometer • Chromatographic column: phenomenex Gemiu 5 um C18 50 × 4.6 mm • Mobile phase: Solution A was 0.1% formic acid aqueous solution, and Solution B was methanol • Flow rate: 1.0 mL/min • Elution time: 0-4.0 min, the eluent was as follows: […] The results of the rat pharmacokinetic experiment are shown in the table below: Table 5: Pharmacokinetic parameters of oral administration of the compound of the present invention in rats

Series [3] in a line: Pharmacokinetic evaluation in mice, oral administration. Format: in vivo, Balb/c mice. Conditions: p.o. 5 mg/kg, plasma; for AUC(0-inf) / AUC(0-t) / Cmax / Tmax / MRT inf: mouse, in vivo, po; for MRT inf: read-out: MRT 0-∞. On the procedure: Balb/c mice were used as test animals to study the pharmacokinetic behavior of the compound of the present invention in mice (plasma) at a dose of 5 mg/kg administered orally and 1 mg/kg administered intravenously.
Balb/c mice, 3 per group, male.
(§4) Preparation of drug for oral administration: 10%PEG400/10%PG/80% glycine buffer (100 mM glycine, 64 Mm NaOH, […]) buffer.
10 ml of PEG400, 10 ml of PG, and 80 ml of (100 mM glycine, 64 Mm NaOH, pH = 9) were measured into a 100 ml volumetric flask, vortexed, mixed homogeneously, and sonicated to obtain a clear solution.
Single PK: An example compound was weighed into a 4 mL glass bottle. The solution was added, and sonication was performed for 10 min to obtain a colorless clear solution having a concentration of 0.5 mg/mL.
The solution was added, and sonication was performed for 10 min to obtain a colorless clear solution having a concentration of 0.5 mg/mL.
Three Balb/c mice, male, respectively administered p.o. after fasting overnight, at a dose of 5 mg/kg and in an administration volume of 10 mL/kg.
The blood samples were placed in EDTA-K2 anticoagulant tubes and centrifuged at 6000 rpm at 4°C for 6 min to separate plasma, which was stored at -80°C. The mice were fed 4 h after administration.
(§5) • 1) 40 µL of a plasma sample was added with 160 µL of acetonitrile for precipitation, and after mixing, the mixture was centrifuged at 3500 × g for 5 to 20 min. • 2) The supernatant solution after treatment was taken for LC/MS/MS analysis of the concentration of the test compound. The LC/MS/MS analysis instrument was AB Sciex API 4000 Qtrap.
• Liquid phase condition: Shimadzu LC-20AD pump • Chromatographic column: Agilent ZORBAX XDB-C18 (50×2.1 mm, 3.5 µm) Mobile phase: Solution A was 0.1% formic acid aqueous solution, and Solution B was acetonitrile • Flow rate: 0.4 mL/min • Elution time: 0-4.0 min, the eluent was as follows:
Main pharmacokinetic parameters were calculated using WinNonlin 6.1.

For series [4], the target named is T1, human GLP-1 receptor. As to the kind of experiment: cAMP production in cell line stably transformed with human GLP1 receptor, 2 h co-incubation (HTRF). Format: cell-based. Particulars: CHO-K1/GLP-1R/CRE-luc cells, stimulation for 2 h, read-out: EC50. On the procedure: as §1
In this experiment, the compound and cells were co-incubated for 2 h.
as §2, with “for 2” for “for 0.5”
as §3

Series [5] can be described thus: Pharmacokinetic evaluation in beagles, oral administration. It is filed as in vivo. Particulars: dog, po, p.o. 2 mg/kg, plasma. The method, then: Beagles were used as test animals to study the pharmacokinetic behavior of the compound of the present invention, administered orally at a dose of 2 mg/kg, in beagles (plasma).
Beagles, 3 per group, male.
as §4
Single PK: The compound of the present invention was weighed into a 100 mL glass bottle, and the solution was added. The pH was first adjusted with 1 M NaOH until the compound dissolves to obtain a clear solution, and then the pH was readjusted to pH 9.0-9.5 with 1 M HCl. Sonication was performed for 10 min to obtain a colorless clear solution having a concentration of 0.4 mg/mL.
Three beagles, male, respectively administered p.o. after fasting overnight, at a dose of 2 mg/kg and in an administration volume of 5 mL/kg.
Blood collection: 0.3 mL of blood was collected from the forelimb vein of the beagles before administration and at 0.25, 0.5, 1, 2, 4, 6, 8, and 24 h after administration. The blood samples were placed in EDTA-K2 anticoagulant tubes and centrifuged at 6000 rpm at 4°C for 6 min to separate plasma, which was stored at -80°C. The beagles were fed 4 h after administration.
as §5
(§6) • Liquid phase condition: Shimadzu LC-20AD pump • Chromatographic column: Agilent ZORBAX XDB-C18 (50×2.1 mm, 3.5 µm) Mobile phase: Solution A was 0.1% formic acid aqueous solution, and Solution B was acetonitrile • Flow rate: 0.4 mL/min • Elution time: 0-4.0 min, the eluent was as follows: […]

Series [6] in a line: Pharmacokinetic evaluation in Macaca fascicularis monkeys, oral administration. Format: in vivo. Conditions: cynomolgus monkey, p.o. 5 mg/kg, plasma. On the procedure: Macaca fascicularis monkeys were used as test animals to study the pharmacokinetic behavior of the compound of the present invention, administered orally at a dose of 5 mg/kg, in Macaca fascicularis monkeys (plasma).
Macaca fascicularis monkeys, 3 per group, male.
as §4
Single PK: The compound of the present invention was weighed into a 100 mL glass bottle, and the solution was added. The pH was first adjusted with 1 M NaOH until the compound dissolves to obtain a clear solution, and then the pH was readjusted to pH 9.0-9.5 with 1 M HCl. Sonication was performed for 10 min to obtain a colorless clear solution having a concentration of 1 mg/mL.
Three Macaca fascicularis monkeys, male, respectively administered p.o. after fasting overnight, at a dose of 5 mg/kg and in an administration volume of 5 mL/kg.
Blood collection: 0.3 mL of blood was collected from the forelimb vein of the Macaca fascicularis monkeys before administration and at 0.25, 0.5, 1, 2, 4, 6, 8, and 24 h after administration. The blood samples were placed in EDTA-K2 anticoagulant tubes and centrifuged at 6000 rpm at 4°C for 6 min to separate plasma, which was stored at -80°C. The Macaca fascicularis monkeys were fed 4 h after administration.
as §5, §6

The mark [7] stands for this setting: not marked single PK (cassette PK).

T1 sequence (P43220 24-463): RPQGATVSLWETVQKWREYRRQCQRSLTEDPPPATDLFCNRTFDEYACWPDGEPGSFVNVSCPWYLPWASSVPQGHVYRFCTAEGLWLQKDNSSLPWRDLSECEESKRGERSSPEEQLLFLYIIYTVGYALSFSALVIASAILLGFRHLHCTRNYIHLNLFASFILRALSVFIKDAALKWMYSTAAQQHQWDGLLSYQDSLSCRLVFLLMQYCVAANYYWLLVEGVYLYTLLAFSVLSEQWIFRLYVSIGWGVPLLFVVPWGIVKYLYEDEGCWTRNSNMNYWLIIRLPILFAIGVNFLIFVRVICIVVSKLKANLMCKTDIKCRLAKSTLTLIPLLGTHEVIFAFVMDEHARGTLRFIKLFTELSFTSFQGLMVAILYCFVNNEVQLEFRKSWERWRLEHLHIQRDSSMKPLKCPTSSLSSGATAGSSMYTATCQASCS

For `Cc1cc(-n2nc3c(c2-n2ccn(-c4ccc5c(c4)OCc4nnc(C)n4-5)c2=O)[C@H](C)N(C(=O)c2cc4cc([C@H]5CCOC(C)(C)C5)ccc4n2[C@@]2(c4noc(=O)[nH]4)C[C@@H]2C)CC3)cc(C)c1F` [Example 19], the concentration for a half-maximal effect (EC50) on human GLP-1 receptor [1] came out at 0.88 nM.
With `Cc1cc(-n2nc3c(c2-n2ccn(-c4ccc5c6c(nn5C)CCCOc46)c2=O)[C@H](C)N(C(=O)c2cc4cc([C@H]5CCOC(C)(C)C5)ccc4n2[C@@]2(c4noc(=O)[nH]4)C[C@@H]2C)CC3)cc(C)c1F` [Example 35], in series [2], the area under the curve AUC(0-inf) was found to be 14100 ng·h/mL, the AUC(0-t) was 12400 ng·h/mL, the maximum concentration (Cmax) came to 1110 ng/mL and the Tmax turned out to be 4.7 h. Also, in series [2], the half-life was 7.2 h and the MRT inf was 11.5 h. For the same molecule, in series [3] (single PK), the total exposure AUC(0-inf) came to 41000 ng·h/mL, the area under the curve AUC(0-t) is 32900 ng·h/mL, the Cmax was 3070 ng/mL and the time of peak concentration (Tmax) came to 1.2 h. In series [3] (single PK), the MRT inf came to 13.9 h and the tl/2 was determined as 10.3 h.
Regarding `Cc1cc(-n2nc3c(c2-n2ccn(-c4ccc5c(cnn5C5CC5)c4F)c2=O)[C@H](C)N(C(=O)c2cc4cc([C@H]5CCOC(C)(C)C5)ccc4n2[C@@]2(c4noc(=O)[nH]4)[C@@H]4COC[C@@H]42)CC3)cc(C)c1F` [Example 65-1], at human GLP-1 receptor [4], the EC50 amounted to 0.06 nM. Moreover, in series [3] (single PK), the area under the curve AUC(0-inf) turned out to be 10900 ng·h/mL, the area under the curve AUC(0-t) was determined as 10600 ng·h/mL, the Cmax is 1220 ng/mL and the time of peak concentration (Tmax) was 2.7 h. For the same molecule, in series [3] (single PK), the MRT inf came out at 6.5 h and the tl/2 is reported as 4.8 h. In series [5], this molecule gave an AUC(0-inf) of 43900 ng·h/mL, an AUC(0-t) at 24 h of 41000 ng·h/mL and a half-life of 5.9 h. The Cmax in series [5] (read-out: Cmax) amounted to 4360 ng/mL. In series [5] (read-out: MRT 0-∞), the MRT inf was determined as 8.1 h. In series [5] (read-out: tmax), the Tmax came out at 2.8 h. For the same molecule, in series [6], the area under the curve AUC(0-inf) is 30800 ng·h/mL, the AUC(0-t) was found to be 29700 ng·h/mL, the maximum concentration (Cmax) was 4460 ng/mL and the Tmax stood at 2 h. Besides, the half-life in series [6] is 5.6 h. The MRT inf in series [6] (read-out: MRT 0-∞) came out at 7.5 h.
For `Cc1cc(-n2nc3c(c2-n2ccn(-c4ccc5c(cnn5C5CC5)c4F)c2=O)[C@H](C)N(C(=O)c2cc4cc([C@H]5CCOC(C)(C)C5)ccc4n2[C@@]2(c4noc(=O)[nH]4)C[C@@H]2C)CC3)cc(C)c1F` [Example 25], in series [2], the AUC(0-inf) stood at 37300 ng·h/mL, the AUC(0-t) came out at 28500 ng·h/mL, the concentration peaked (Cmax) at 1960 ng/mL and the time of peak concentration (Tmax) was 6 h. In addition, in series [2], the half-life is 10.5 h and the MRT inf came to 16.4 h. Besides, in series [3] (setting [7]), the area under the curve AUC(0-inf) worked out at 39000 ng·h/mL, the exposure AUC(0-t) came out at 30500 ng·h/mL, the Cmax came out at 2060 ng/mL and the Tmax amounted to 2 h. Besides, in series [3] (setting [7]), the MRT inf was 15.2 h and the tl/2 turned out to be 10.7 h.
